{
  "source": "patent US11896593B2",
  "about": "“Sulfamate derivative compounds for use in treating or alleviating a psychiatric disorder” (Bio-Pharm Solutions Co., Ltd., priority 2020, dated 2024)",
  "test_system": "ICR male mice",
  "experiment": "Open field test",
  "type": "in vivo",
  "settings": "60 minutes before testing",
  "experimental": "This test is based on anxiety behaviors of rodents in the central area of an open field. When a mouse stayed in the central area for a longer period of time, it was deemed that there were more anti-stress, anti-depressant and anti-anxiety effects. ICR male mice (30 g to 35 g) were purchased from Orient Bio Korea Co. (Korea) and allowed to acclimatize for 1 week before being tested in a controlled animal facility (temperature 22±2° C., humidity 55±5%). When treatment began, the weight of the animals was 35±5% g. The test compound for oral administration was dissolved in 30% PEG400 and administered at a dose per body weight of 10 mL/kg 60 minutes before testing. The test compound for intraperitoneal administration was dissolved in 20% Tween80 and administered at a dose per body weight of 10 mL/kg 60 minutes before testing. The control group was provided with a corresponding vehicle. The open field was measured and analyzed by OPTO-VARIMEX instrument (Columbus Instruments, USA). The mouse was placed in the center of the open field, and its behavior was measured for 10 minutes. The open field was divided into 16 equal parts, and the middle area was established as the central area. Locomotor activity was measured using a spontaneous momentum (distance moved in cm), and measurement of anxiety behavior was obtained using the time spent in the central area as an index. In the open field experiment, when the time during which the mouse stayed in the central area was longer, it was evaluated that the symptoms of anxiety were alleviated, and when the time was shorter, the mouse was evaluated to have symptoms of anxiety (Reference; Prut L, Belzung C. 2003. The open field as a paradigm to measure the effects of drugs on anxiety-like behaviors: a review. Eur J Pharmacol. February 28; 463(1-3):3-33.).",
  "data": [
    {"smiles": "CC1(C)O[C@@H](COS(N)(=O)=O)[C@H](c2ccccc2Cl)O1", "note": "[Example 2, ((4S,5S)-5-(2-chlorophenyl)-2,2-dimethyl-1,3-dioxolan-4-yl)methyl sulfamate]", "values": [
      {"measurement": "Spontaneous momentum(cm)/10 minutes, Treatment", "setting": "intraperitoneal, 10 mg/kg", "result": "5038.2 ± 455.9", "unit": "cm/10 minutes"},
      {"measurement": "Time of staying in central area (sec.)/10 minutes, Treatment", "setting": "intraperitoneal, 10 mg/kg", "result": "31.6 ± 2.7", "unit": "sec./10 minutes"},
      {"measurement": "Spontaneous momentum(cm)/10 minutes, Treatment", "setting": "intraperitoneal, 30 mg/kg", "result": "4249.4 ± 402.4", "unit": "cm/10 minutes"},
      {"measurement": "Time of staying in central area (sec.)/10 minutes, Treatment", "setting": "intraperitoneal, 30 mg/kg", "result": "35.6 ± 3.1", "unit": "sec./10 minutes"},
      {"measurement": "Spontaneous momentum(cm)/10 minutes, Treatment", "setting": "oral, 10 mg/kg", "result": "4997.3 ± 491.6", "unit": "cm/10 minutes"},
      {"measurement": "Time of staying in central area (sec.)/10 minutes, Treatment", "setting": "oral, 10 mg/kg", "result": "36.6 ± 4.6", "unit": "sec./10 minutes"},
      {"measurement": "Spontaneous momentum(cm)/10 minutes, Treatment", "setting": "oral, 30 mg/kg", "result": "5033.5 ± 233.8", "unit": "cm/10 minutes"},
      {"measurement": "Time of staying in central area (sec.)/10 minutes, Treatment", "setting": "oral, 30 mg/kg", "result": "44.7 ± 3.5", "unit": "sec./10 minutes"}
    ]}
  ]
}
